{"source": "patent US11246858B2", "about": "“Immunoresponsive methods of treating tumors” (Institut Pasteur de Montevideo, priority 2017, dated 2022)", "key": {"IL-1β secretion": {"system": "IL-1β secretion", "experiment": "IL-1β secretion by LPS-primed, stimulated WT and TORID KO BMDCs (ELISA)", "format": "cell-based, mouse", "conditions": "for IL-1β secretion: WT and TORID KO BMDCs primed with LPS, stimulated with ATP", "procedure": "The study shown in FIG. 8 was performed by priming WT and TORID KO mice bone marrow-derived dendritic cells (BMDCs) with 0.25 μg/mL lipopolysaccharide (LPS) for four hours. The BMDCs were then washed and treated with different doses of ATP, Nigericin, and aluminum for 45 minutes as shown in the left column of bar graphs. Alternatively, 0.5 mg/mL ATP, 2.5 μg/mL Nigericin, or 500 μg/mL aluminum were used at different time points as indicated in the right column of bar graphs. IL-1β was quantified by ELISA in the culture supernatant.\nThe experiment was performed on wildtype and TORID KO mice BMDCs primed with LPS for 3 hours. The BMDCs were subsequently treated with nigericin, ATP, or aluminum for 45 minutes. […] Caspase 1 activation was quantified by FACS using Flica 1 reagent. […] Z-WEHD-FMK was used as the caspase 1 inhibitor, and IL-1β levels were quantified by ELISA in the supernatant of the cell culture stimulated with the indicated compounds.\nInflammasome activation is also associated with an increase of cytosolic Ca^2+. […] Data in this study was generated by loading Ca^2+ sensitive probe Fura-2 in wild type and TORID KO mice BMDCs after priming the BMDCs for three hours with LPS. The cells were exposed to 0.5 mM ATP to elicit inflammasome activation. The cells were excited with a UV laser at 350 nm. Absorbance at 340 nm and 380 nm were recorded in a time lapse manner. As shown in the top illustrations, the TORID KO BMDCs show a higher level of cytosolic Ca^2+. Moreover, IL-1β levels were higher with the TORID KO BMDCs. BAPTA-AM was used to chelate cytosolic Ca^2+.\nPotassium (K^+) efflux is also linked to inflammasome activation. In the study shown in FIG. 11, IL-1β synthesis resulting from K^+ was tested. This study was performed on wild type and TORID KO mouse BMDCs treated with LPS and ATP as in the previously described studies herein. Culture medium was replaced by saline buffer containing normal low levels of K^+ (5 mM, K+) or high levels of K^+ (120 mM; K+++). IL-1β was quantified by ELISA in the culture supernatant. As shown in the top graph of FIG. 11, IL-1β levels were higher in the TORID KO mice. […] The results therefore support pharmacological use of TIs to promote inflammasome activation by triggering Ca^2+-activated K^+ channels."}, "EG7.OVA cancer cells": {"system": "EG7.OVA cancer cells", "experiment": "EG7.OVA tumor-bearing wild type mice treated with BAY K8644", "format": "in vivo", "conditions": "EG7.OVA s.c., i.p. daily day 3 to day 15, vs control vehicle", "procedure": "Data from in vivo studies depicted in FIG. 16 confirm the effect of pharmacologic inhibition of TORID on tumor growth. The study was performed on wild type mice injected subcutaneously with EG7.OVA cancer cells. Three days after inoculating the wild type mice with EG7.OVA tumor cells, Bay K8644 or a control vehicle, such as ethanol, were injected intraperitoneally daily up to the fifteenth day after tumor cell inoculation."}, "EG7 and MC38 tumors": {"system": "EG7 and MC38 tumors", "experiment": "Survival of mice with EG7 and MC38 tumors treated with anti-PD-1 alone or anti-PD-1+Bayk8644", "format": "in vivo", "conditions": "anti-PD-1 resistant mice; two tumor types (EG7, MC38); anti-PD-1+BAY K8644 vs anti-PD-1 alone"}, "EG7.OVA cells": {"system": "EG7.OVA cells", "experiment": "EG7.OVA tumor in caspase 1/11 active and caspase 1/11 KO mice treated with BAY K8644", "format": "in vivo", "conditions": "4 mg/kg i.p. daily day 3 to day 15", "source_text": "FIG. 17 further confirms the results from FIG. 16 and the proposed mechanism depicted in FIG. 6. Data shown in FIG. 17 was gathered from caspase 1/11 active mice (1/11^+/+) and caspase 1/11 KO mice (1/11^−/−) injected with EG7.OVA cells."}, "TORID": {"system": "TORID", "experiment": "TORID activity by ANG-2 probe fluorescence (flow cytometry) in transfected CHO cells", "format": "cell-based", "procedure": "As shown in FIG. 14 Chinese hamster ovarian (CHO) cells were transfected with TORID and Tmem176a and incubated for 24 hours. The cells were subsequently loaded with ANG-2 probe for 30 min RT, washed, and then incubated with (+)-BAY […] or (i)-BAY […] for 30 min. The cells were then analyzed by flow cytometry to evaluate TORID activity. Activity was measured by comparing fluorescence of the ANG-2 probe in TORID+ cells incubated with BAY […] (blue) to the control (red). TORID activity measure as the ANG-2 mean fluorescent intensity (MFI) in normal medium 0(-), 5(+), or 10(++) uM. […] FIG. 15 illustrates analysis of the ANG-2 mean fluorescent intensity (MFI) in normal medium of TORID exposed to BAY […] concentrations of 0 uM (-), 5 uM (+) or 10 uM (++). […] In all cases fluorescence intensity from ANG-2-loaded cells cultured in […] buffer was subtracted."}}, "note": "* marks the point of attachment. Cbz = O=C(OCc1ccccc1)*; CH2F = FC*"}
{"compound": "CC(=O)OCOC(=O)CN(CC(=O)OCOC(C)=O)c1ccccc1OCCOc1ccccc1N(CC(=O)OCOC(C)=O)CC(=O)OCOC(C)=O", "note": "[BAPTA-AM]", "values": [{"measurement": "IL-1β secretion", "setting": "IL-1β secretion", "value": "completely blocked IL-1β secretion"}]}
{"compound": "COC(=O)C1=C(C)NC(C)=C([N+](=O)[O-])C1c1ccccc1C(F)(F)F", "note": "(stereo not shown) [BAY K8644, Methyl 2,6-dimethyl-5-nitro-4-[2-(trifluoromethyl)phenyl]-1,4-dihydropyridine-3-carboxylate]", "values": [{"measurement": "disease-free survival rates", "setting": "EG7.OVA cancer cells", "value": "increased"}, {"measurement": "rate of survival", "setting": "EG7 and MC38 tumors", "value": "higher rate of survival"}, {"measurement": "overall rates of survival vs negative control group not injected", "setting": "EG7.OVA cells", "value": "higher"}, {"measurement": "survival rate in caspase 1/11 KO vs caspase 1/11 active mice", "setting": "EG7.OVA cells", "value": "lowered the survival rate"}, {"measurement": "TORID activity versus BAY K8644 concentration", "setting": "TORID; 0, 5 or 10 uM in normal medium, Na-free buffer signal subtracted", "value": "dose proportional response"}, {"measurement": "TORID activity (ANG-2 mean fluorescent intensity)", "setting": "TORID; CHO cells transfected with TORID and Tmem176a, 30 min incubation, vs control", "value": "inhibits TORID activity"}]}
{"compound": "CCN(CCO)CCCC(C)Nc1ccnc2cc(Cl)ccc12", "note": "(stereo not shown) [HCQ, hydroxychloroquine]", "values": [{"measurement": "IL-1β secretion", "setting": "IL-1β secretion", "value": "mimicked iberiotoxin in controlling IL-1β secretion"}]}
{"compound": "Cbz-WEHD-CH2F", "values": [{"measurement": "IL-1β levels in culture supernatant", "setting": "IL-1β secretion; BMDCs primed with LPS 3 hours, then nigericin, ATP or aluminum, caspase 1 inhibition", "value": "lower levels of IL-1β"}]}
{"compound": "iberiotoxin: BKCa KCa1.1 specific inhibitor (QFTDVDCSVSKECWSVCKDLFGVDRGKCMGKKCRCYQ; UniProt P24663 1-37, looked up)", "values": [{"measurement": "IL-1β secretion", "setting": "IL-1β secretion", "value": "blocked IL-1beta secretion"}]}
